{
  "source": "patent US20210113492A1",
  "about": "“METHOD FOR INHIBITING PROLIFERATION AND METASTASIS OF CANCER CELLS BY USING NAPHTHOQUINONE DERIVATIVE” (National Tsing Hua University, priority 2019, published 2021)",
  "key": {"[1]": {"tested_on": "human primary glioblastoma cells (U87)", "test": "Boyden chamber invasion assay, U87", "format": "cell-based", "settings": "2.5, 5 and 10 μM, 24 h, no dose dependency (FIG. 2B)", "experimental": "Cells were harvested by […] and resuspended in a serum-free medium with 0.1% BSA. Then, […] of cell suspension (2×10^5 cells) was seeded into the upper insert of SPLInsert with Polyethylene terephthalate (PET) membrane (pore size: 8.0 μm) (SPL Lifesciences, Korea) pre-coated with matrigel (BD Biosciences, San Jose, Calif.). The bottom well of 24-well plate of SPLInsert was filled with cell medium containing 10% FBS with different concentrations of isoplumbagin (5, 7.5 and 10 μM, Experimental group of oral squamous cell carcinoma cells (OC3-IV2); 2.5, 5 and 10 μM, Experimental groups of human primary glioblastoma cells (U87), human non-small cell lung carcinoma cells (H1299), human prostate cancer cells (PC3) and human cervical cancer cells (Hela)) or without isoplumbagin (DMSO added). […] Number of cells was counted using Image J. Relative invasion ability was calculated as cell number per area.\nFIGS. 2A-2E show the inhibitory effect of different doses of isoplumbagin on invasion for oral squamous cell carcinoma cells (OC3-IV2), human primary glioblastoma cells (U87), human non-small cell lung carcinoma cells (H1299), prostate cancer cells (PC3) and cervical cancer cells (Hela) assessed with the Boyden chamber assays. *Compared with solvent control (DMSO). […]"}, "[2]": {"tested_on": "human primary glioblastoma cells (U87)", "test": "Mitochondrial morphology and distribution by immunofluorescence staining, U87", "format": "cell-based", "settings": "1 μM or 2.5 μM, 24 hours, anti-TOM20 staining", "experimental": "The effects of isoplumbagin on mitochondrial morphology and distribution of OC3-IV2, U87, H1299 and PC3 cell lines were measured by immunofluorescence staining After OC3-IV2, U87, H1299, and PC3 cells were treated with DMSO, 1 μM, or 2.5 μM isoplumbagin for 24 hours, cells were fixed by 4% (v/v) paraformaldehyde and permeabilized by 0.1% (v/v) Triton X-100. Cells were incubated in blocking buffer containing 1% bovine serum albumin. After blocking, cells were incubated overnight with indicated primary antibodies against TOM20 (a mitochondria marker, sc-11415, Santa Cruz), and then incubated with Alexa Fluor 488-conjugated secondary antibodies (A11001, Invitrogen). Nucleus was stained with DAPI, actin was stained with rhodamine phalloidin (A12379, Invitrogen) and cells were mounted using Prolong Gold reagent (P36930, Invitrogen). 63 images were taken by LSM800 confocal microscopes (Zeiss).\nFIGS. 5A-5D show the effect of isoplumbagin on mitochondrial morphogenesis and distribution of oral squamous cell carcinoma cells (OC3-IV2), human primary glioblastoma cells (U87), human non-small cell lung carcinoma cells (H1299) and human prostate cancer cells (PC3). Cells treated with either solvent control (DMSO) or isoplumbagin were determined by immunofluorescence staining using anti-TOM20 (mitochondria, green) antibody, rhodamine phalloidin (actin, red) and DAPI (nucleus, blue). […]"}, "OC3-IV2 cells": {"tested_on": "OC3-IV2 cells", "test": "Oral orthotopic OC3-IV2 xenograft mice model", "format": "in vivo, CB17/lcr-Prkdc^scid/CrlNarl mice", "settings": "2 mg/kg intraperitoneal once every 3 days, day 0-18", "experimental": "In this example, the anti-tumor effect of isoplumbagin in xenograft mice model was explored. In oral orthotopic xenograft CB17/lcr-Prkdc^scid/CrlNarl mice model, 1×10^6 OC3-IV2 cells were harvested and re-suspended in 100 μl PBS. The cells were injected through the oral buccal mucosa into six-week-old male CB17/lcr-Prkdc^scid/CrlNarl mice (National Laboratory Animal Center, Taiwan). When the tumor size in oral buccal reached approximately 25 mm^3 at 14 days after inoculation of the OC3-IV2 cells, mice were randomly assigned into two groups (n=3 per group): vehicle (DMSO) control group and 2 mg/kg isoplumbagin group. Treatments were given via intraperitoneal injection once every 3 days in the morning for 2 weeks. During this period, mice weights and tumor volumes (length×width^2/2) were recorded every 3 days. At the end of the study (on day 18), the mice were sacrificed by carbon dioxide asphyxiation. […]\nFIGS. 7A-7D show the anti-tumor effect of isoplumbagin in xenograft mice model. […] Tumor volume (FIG. 7A) and body weight (FIG. 7B) were measured from day 0-18 after treatment. […]"}},
  "data": [
    {"smiles": "CC1=CC(=O)c2cccc(O)c2C1=O", "note": "[isoplumbagin, 5-hydroxy-3-methyl-1,4-naphthoquinone]", "values": [
      {"measurement": "cancer cells migrating through the membrane (invasion)", "setting": "[1]", "value": "decrease significantly"},
      {"measurement": "mitochondrial morphogenesis and distribution", "setting": "[2]", "value": "can alter the mitochondrial morphogenesis and distribution"},
      {"measurement": "tumor growth (tumor volume, tumor weight)", "setting": "OC3-IV2 cells", "value": "can effectively inhibit tumor growth"}
    ]}
  ]
}
